Patent publication US20160010059A1, “EXPANSION OF HEMATOPOIETIC PROGENITOR CELLS BY HISTONE METHYLTRANSFERASE G9a INHIBITION” (The Regents of the University of California, priority 2013, published 2016)
“Also recorded” adds a separate entry of the source.

How the values were obtained:
[1] = tested on: H3K9me2 / H3K9me3; test: Histone western blot and immunofluorescence in UNC0638 treated cells; format: cell-based, mouse
Method: (§1) For western blot, FACS sorted cells were lysed in RIPA buffer, and run in a 15% gradient SDS-page (BIO-RAD). Histone modifications were assessed with antibodies against H3k27me3 (07-449 Millipore), H3 Acetylated (06-599), H4K16Ac (07-329), H3k4me3 (07-473), total H3 (06-755), H3k36me3 (Ab9050 abcam), H3k9me2 (Ab1220), H3k9me3 (Ab8898). Cells were incubated with the HDAC inhibitor trichostatin A (Cell signaling) at 37° C. for 2 hours to induce histone acetylation. For immunostaining cells were sorted onto poly-lysine coated slides, fixed with 2% PFA, permeabilized with 0.1% triton-x in PBS, and stained with H3k9me3 (Ab8898), Lamin B (sc-6217) antibodies followed by an Alexa488-Donkey-α-goat and a Alexa594-goat-α-rabbit secondary antibody (Invitrogen) plus DAPI. Images were acquired using a PerkinElmer Volocity spinning disk confocal microscope. Image analysis was done using ImageJ software (Schneider et al., 2012).

[2] = tested on: KLS cells; test: Replating of cultured cells into liquid culture with SCF and TPO (proliferation capacity); format: cell-based, mouse
[3] = tested on: lethally irradiated C57BL/6 mice; test: Transplantation of cultured HSCs into lethally irradiated mice (chimerism); format: in vivo, mouse
[4] = tested on: HSC-related genes; test: Global gene expression analysis (RNA-seq) of KLS fractions after 5 days in vitro culture; format: cell-based, mouse; settings: 5 days culture
[5] = tested on: H3k9me2 on putative G9a targets; test: ChIP-qPCR of histone marks on putative G9a targets identified by RNA-seq; format: cell-based, mouse; settings: n=3
[6] = tested on: histone acetylation; test: Histone western blot after HDAC inhibitor treatment (assay sensitivity control); format: cell-based, mouse; settings: 37° C. for 2 hours
Method: as §1

SMILES: COc1cc2c(NC3CCN(C(C)C)CC3)nc(C3CCCCC3)nc2cc1OCCCN1CCCC1 [UNC0638]
- amount of H3K9me2 by western blot ([1]; UNC0638 treated cells): effect is highly enriched in the KLS fraction
- distribution of H3K9me3 by immunofluorescence ([1]; compared to the DMSO treated control): more disperse distribution of this histone mark
- proliferation capacity ([2]; after day 5 of in vitro culture): increase proliferation capacity after day 5
- proliferation capacity ([2]; replating equal amounts of KLS after 5 days culture): equal proliferation capacity as the KLS control cells
- number of cells ([2]; replating equal amounts of Kit+ cells, 10 days in culture): significant higher number of cells after 10 days in culture
- lineage readout after transplantation ([3]; 24 hrs or 5 days culture): no defects in lineage potential; also recorded: readout in all 5 lineages
- Percentage of chimerism / engraftment ([3]; cells cultured for 24 hrs with UNC0638 before transplantation, n=10 per group): minor increase in engraftment; also recorded: positive trend in higher chimerism for UNC0638 treated cells in all myeloid and lymphoid lineages, though not significant
- Percentage of chimerism / engraftment ([3]; cells cultured for 5 days on AFT024 feeder layers with UNC0638 before transplantation, n=10): modest increase in the levels of engraftment; also recorded: significantly higher % of GM and B chimerism
- downregulated genes ([4]; Egr1, Ndn, Robo4): significantly downregulation of some genes
- upregulated genes ([4]; vs DMSO control, DESEQ padj<0.01, e.g. Sox6, Itga2b, Gata1, Fgf3): significant number of HSC-related genes upregulated; also recorded: significant number of upregulated HSC-related genes
- levels of H3k9me2 on putative G9a targets [5]: significantly lower amount of H3K9me2 at their promoter; also recorded: significantly reduced levels of H3k9me2
- levels of H3k9me3 on putative G9a targets [5]: trend to lower amount of H3K9me3; also recorded: mild trend toward H3k9me3 reduction
- levels of active mark H3K4me3 on putative G9a targets [5]: no differences for the active mark H3K4me3

SMILES: CC(/C=C/C(=O)NO)=C\[C@@H](C)C(=O)c1ccc(N(C)C)cc1 [trichostatin A]
- global levels of histone acetylation [6]: significantly increased the global levels of histone acetylation
